Read-outs that look alike come from different tables or passages of the source.
Columns and labels:
Male Sprague-Dawley rats [1] = test: Continuous CHA delivery through iPRECIO pumps at Ta 16° C. or 25° C., with 8-SPT injection; type: in vivo, rat; conditions: for mean minimum Tb: continuous CHA via SQ minipump, equivalent to 1 mg/kg every 4 hr, 24 hr
Description: To determine if the effects of CHA on heart rate were due to direct effects of CHA on the heart or to the effects of tissue temperature, programmable minipumps were employed to deliver CHA continuously for 24 hr at an ambient temperature of 25° C. and 16° C. […] For these experiments a separate group of rats was instrumented with programmable iPRECIO® pumps (DSI, St. Paul, Minn.). CHA was dissolved in 25% (w/v) hydroxypropyl-β-cyclodextrin (CD) in sterile water and 8-SPT was dissolved in 0.9% saline. Pumps delivered the same mass of CHA as in the first experiment (6 mg/kg over a 24 hr period), however, in this case CHA was delivered at a constant rate of 30 μL/hr. Heart rate (HR) and hemoglobin saturation (sO2) was monitored using a pulse oximeter every 10 min for 1 hr following a single injection of 8-SPT (25 mg/kg, i.p.) or vehicle as indicated. As before, animals in both treatment and control groups were moved to an ambient temperature (Ta) of 16° C. or 25° C. the day before the experiment and remained at this Ta until return to a Ta of 20° C., 4 hr after the end of drug delivery. Drug and vehicle treatments were administered to all animals using a balanced cross-over design. At least 1 week separated CHA and vehicle (CD) treatment and 1 hr separated 8-SPT and vehicle (saline) injections. A pulse oximeter (Vet/Ox […], Model 72042A3 Sensor Devices Inc., Lancaster, Pa.) was used to monitor heart rate (HR) and sO2. Pulse oximetry was acquired via a sensor on the paw.

[2] = rabbit; Liu G S et al., 1991; cited from earlier work
[3] = test system: dietary restricted (DR) rats; test: Induction of hypothermia by intermittent CHA and 8-SPT in ad libitum fed and dietary restricted rats; type: in vivo, rat
Description: First, shivering is alleviated through stimulation of central A1AR. Second, the Tb minimum and rate of cooling following stimulation of A1AR in the CNS can be controlled through manipulation of ambient temperature without external or internal cooling. These principles were used to develop methods for inducing hypothermia in dietary restricted (DR) rats (FIG. 3B). In FIG. 3, the magnitude and rate of cooling was controlled by adjusting ambient temperature (i.e., 16° C.) and regulating sensitivity to CHA through DR (every other day feeding, see FIG. 3B). Peripheral side effects were minimized by co-administration of 8-SPT (2.5 mg/kg i.p.) 15 min prior to CHA (0.5 mg/kg, i.p.). […].

[4] = test system: arctic ground squirrel (AGS); test: CHA-induced torpor and hypothermic response in arctic ground squirrel; type: in vivo; conditions: CHA 0.1 mg/kg i.p.; trough vs peak in euthermic Tb,sc; p<0.05, n=6; FIG. 2B
Description: Adenosine is a neuroprotective by-product of cellular metabolism that accumulates and is released from the brain during traumatic events (Dunwiddie and Masino, 2001). Under nonpathologic conditions, adenosine functions as a bioenergetic network regulator (Boison et al., 2011), and as a neuromodulator with key roles in sleep, thermoregulation and hibernation (Drew and Jinka, 2012) via a family of G protein-coupled receptors (GPCR). Torpor onset in the arctic ground squirrel (AGS) is regulated within the CNS by A1AR signaling and depends on a seasonal change in sensitivity to agonists (Jinka et al., 2011). […] Moreover, CHA-induced torpor is similar to spontaneous torpor with regard to the magnitude and temporal profile of metabolic suppression and Tb decline. A seasonally regulated decrease in Tb during rest in euthermic (non-hibernating) AGS predicts onset of torpor and an increased hypothermic response to CHA. Thus, Tb in animals at rest is a biomarker of enhanced sensitivity to A1AR signaling (FIG. 2). This relationship between Tb and sensitivity to CHA is observed in rats as well as in AGS as disclosed herein.
Spontaneous torpor is indicated by abrupt decreases in Tb,sc below about 30° C.

Male Sprague-Dawley rats [5] = test: Sustained hypothermia in conscious rats, drug delivery via sequential i.p. injections; type: in vivo
[6] = test system: rats subjected to 8 min of asphyxial cardiac arrest; test: Therapeutic hypothermia in rats subjected to 8 min asphyxial cardiac arrest; type: in vivo, rat
Description: Rats aged 68-75 days were subjected to 8 min of asphyxial cardiac arrest and animals that were resuscitated within 120 sec and met additional inclusion criteria 60 min after ROSC (Table 1) were randomly allocated to a therapeutic hypothermia (TH) or a normothermic control (NC) group using a computer-generated randomization schedule without knowledge of outcome. Treatment commenced 70 min after restoration of spontaneous circulation (ROSC).
Animals assigned to the TH group were moved to 16° C. and CHA and 8-SPT delivered as described above for Drug delivery via sequential IP injections. Animals assigned to the NC group were moved to a neonatal incubator set to 29° C. and vehicles (PB and saline) delivered as described above for the control group. At the end of 24 hr the rats were moved to and housed an ambient temperature of 20° C. for 7 days until they were euthanized for tissue collection. Body temperature was monitored prior to each injection throughout treatment and daily thereafter using sc IPTT-300 transponders (BioMedic Data Systems, Inc. Seaford, Del.).
ACA was induced as described by Dave et al., 2006. Animals were anesthetized with 5% isofluorane and a 30:70 mixture of O2 and N2O followed by endotracheal intubation and mechanical ventilation. The femoral vein and artery were cannulated for continuous blood pressure monitoring and blood gas analysis. ECG leads were attached to the limbs. Physiological variables, including but not limited to PaCO2, PaO2, and pH were maintained within normal limits by adjusting respiratory rate and volume. MABP and ECG were monitored continuously. Temporalis muscle and rectal temperatures were maintained at 36.5-37.5° C. by heating lamps and Omega (Stamford, Conn.) T-CSC32 temperature controllers. To induce cardiac arrest, vecuronium (1 mg/kg) was injected I.V. and apnea was induced by disconnecting the ventilator from the endotracheal tube. Resuscitation was initiated by reconnecting the ventilator, administering epinephrine (0.01 mg/kg, I.V.) and sodium bicarbonate (1 mg/kg, I.V.) mechanically ventilating with 100% O2 at a rate of 80 bpm and manual chest compressions until MABP reached 50 mm Hg and was maintained by a spontaneously beating heart for more than 10 sec. After 10 min of ROSC, ventilation was decreased to 60 bpm and O2 lowered to 30%. Naïve animals were subjected to similar surgical procedures except that the ventilator was not disconnected from the endotracheal tube.
Post-operative (post-op) rats subjected to 6 min and 8 min CA and not assigned to hypothermia experiments were placed in a neonatal incubator overnight with only water provided (0.9% saline, I.P. based off […] body weight was injected at the end of surgery to prevent dehydration). After 8-16 hr, animals were fed, weighed, cleaned, and had neurological deficit scores (NDS) analyzed daily for 7 days beginning 2 hr post ROSC. Rats were fed a 50:50 mix of rodent chow and sugar mixed with water to create a soup, which was placed into small petri dishes to allow animals to self-feed. Animals that were unable to feed themselves were assisted via spoon-feeding. Spoon-feeding involved using a gavage needle and a 3 cc syringe to slowly and carefully inject the liquid soup material into the rat's mouth allowing their “swallow-reflex” to determine how much food was given.
Behavioral Neurological Deficit Scores (NDS) were taken daily for 7 days after asphyxial cardiac arrest to assess injury. The total NDS consists of five components: consciousness and respiration, cranial nerve function, motor function, sensory function, and coordination (leg/tail movement, cleaning, depth perception, and righting reflex) as previously described in Katz et al., 1995). The NDS range is a scale between 0 (normal function) to 100 (brain dead). […]

[7] = test system: arctic ground squirrel (AGS); conditions: CHA i.p. or into the lateral ventricle (icv), cited from earlier work
[8] = stated as approximated by the 4 hr injection interval; cited from earlier work
[9] = 8-SPT 25 mg/kg i.p. in CHA treated animals, Ta 25° C.

## Cn1c(=O)c2[nH]c(-c3ccc(S(=O)(=O)O)cc3)nc2n(C)c1=O [8-SPT, 8-p-sulfophenyltheophylline]
Male Sprague-Dawley rats [1]; 8-SPT 25 mg/kg i.p. in CHA treated animals, Ta 16° C.
  influence on Tb: no influence on Tb
Male Sprague-Dawley rats [1]; [9]
  heart rate: small, but significant increase
  influence on Tb: no influence on Tb
Male Sprague-Dawley rats [1]; 8-SPT 25 mg/kg i.p. in animals treated with continuous CHA, Ta 16° C.
  increase in heart rate: 2 fold
Male Sprague-Dawley rats [1]; 8-SPT in control (CD treated) animals, Ta 16° C., saline vehicle did the same
  heart rate in control animals: increased heart rate
Male Sprague-Dawley rats [1]; 8-SPT in control (CD treated) animals, Ta 25° C.
  heart rate or Tb in control animals: no effect on heart rate or Tb
Male Sprague-Dawley rats [1]; after 8-SPT 25 mg/kg i.p., Ta 16° C.
  time for effects of 8-SPT to subside: ≤ 60 min
[2]
  half-life: 0.75 h

## OC[C@H]1O[C@@H](n2cnc3c(NC4CCCCC4)ncnc32)[C@H](O)[C@@H]1O [CHA, N^6-cyclohexyladenosine]
Male Sprague-Dawley rats [1]; continuous CHA at Ta 16° C. and 25° C.
  sO2: no effect
Male Sprague-Dawley rats [1]; continuous CHA at Ta 16° C. and 25° C. vs CD vehicle, p<0.01
  heart rate: decreased
Male Sprague-Dawley rats [1]; Ta 16° C.
  mean minimum Tb: 29.3±0.3 °C
Male Sprague-Dawley rats [1]; Ta 25° C.
  mean minimum Tb: 35.6±0.12 °C
[3]; dietary restriction (every other day feeding) vs ad libitum, CHA 0.5 mg/kg with 8-SPT
  magnitude of cooling at a given dose: enhanced following DR
[3]; repeated co-administration: 8-SPT 2.5 mg/kg i.p. 15 min prior to CHA 0.5 mg/kg i.p., 4 hr intervals, Ta 16° C.
  Tb in conscious rats: immediate decrease in Tb
[4]
  maximal response to a low (non-torpor inducing) dose: greater when tested during a trough than when tested during a peak
Male Sprague-Dawley rats [5]; CHA 1.0 mg/kg i.p. at 4 hr intervals, 6 injections, 8-SPT 15 min prior, Ta 16° C.
  Tb on repeated injection: steady minimum in Tb after the fourth injection
Male Sprague-Dawley rats [5]; CHA 1.0 mg/kg i.p., 8-SPT 25 mg/kg i.p. 15 min prior, Ta 16° C., FIG. 4A
  Tb decreased to: 33 °C
Male Sprague-Dawley rats [5]; CHA 1.0 mg/kg i.p., 8-SPT 15 min prior, Ta 16° C.
  time to decrease of Tb to 33° C.: ≤ 1 h
Male Sprague-Dawley rats [5]; CHA-treated rats, 4 hr after last 8-SPT and CHA injection, FIG. 4C
  heart rate at 24 hr: slight, but statistically significant bradycardia
Male Sprague-Dawley rats [5]; after 6 injections of CHA and 8-SPT, no other means of rewarming
  time to rewarm after moving to Ta of 20° C.: ≤ 3.5 h
Male Sprague-Dawley rats [5]; after 24 hr CHA and 8-SPT at Ta 16° C.
  adverse events after rewarming: without evidence of significant adverse events
Male Sprague-Dawley rats [5]; after rewarming, FIG. 4C
  heart rate 5.5 hr after the last CHA injection: remained significantly elevated
Male Sprague-Dawley rats [5]; during hypothermia, FIG. 4B
  neurological deficit scores (NDS): increased
[6]; TH group n=3, 8 days after 8 min asphyxial CA, naïve 180.8±12.3, normothermic control 47.8
  number of healthy neurons per mm of CA1 (mean±SEM): 135.5±4.6
[6]; TH group, n=3, 1 of 3 survived in normothermic control group
  survival to 8 days: 3 rats
[6]; TH group, n=3
  individual Tb minima: 29.7±0.3 °C
  time to Tb of 31.0 to 31.6° C. after CHA injection: ≤ 3 h
[6]; TH group, transfer 4 hr after last CHA injection
  time to rewarm without intervention after transfer to Ta of 20° C.: ≤ 5 h
[6]; cooling initiated 70 min post ROSC
  time at which Tb reached a minimum after ROSC: 12 h
[6]; hypothermia group
  post-operative recovery: recovered without need for post-op care
[7]; summer
  torpor induction in summer: not in summer
[7]; winter
  torpor induction in winter: induces torpor
[8]
  half-life: ~4 h

From US10092591B2, “Methods and compositions for the treatment of ischemic injury to tissue using therapeutic hypothermia” (University of Alaska Fairbanks, priority 2014, dated 2018)
